According to patent US11464750B2, “Anticancer agent and use thereof” (priority 2017, dated 2022):
“Also recorded” adds a separate entry of the source.

How the values were obtained:
[1] = system: phosphorylated Akt (Ser^473); assay: Western blotting, p-Akt (Ser473), TKG0377 cells; format: cell-based, human; conditions: 0.5 μM
Experimental: (§1) The effect of 3EZ,20Ac-ingenol treatment on a PI3K/Akt signaling pathway was examined. Specifically, BALL-1 cells, TKG0210 cells, and TKG0377 cells were cultured for 48 hours in the presence of 3EZ,20Ac-ingenol at a final concentration of 0.5 μM, and by Western blotting using an anti-p-Akt (Ser^473) antibody (Cell Signaling Technology), phosphorylation of the 473th serine residue of an Akt protein in respective fractions of the entire cell, a nucleus, and a cytoplasm was analyzed. In addition, cells cultured in the absence of 3EZ,20Ac-ingenol were used as controls.
(§2) BALL-1 cells, TKG0210 cells, and TKG0377 cells were cultured for 24 and 48 hours in the presence of 3EZ,20Ac-ingenol at a final concentration of 0.5 μM, and abundances of p-Akt in the nuclear fraction and the cytoplasm fraction were analyzed by Western blotting. In addition, respective cells cultured in the absence of 3FZ,20Ac-ingenol were used as controls.

BALL-1 cells [2] = assay: MTT assay, BALL-1 cells with siRNA against ATR; format: cell-based, human; conditions: 0.5 μM, 48 hours
Experimental: An effect of ATR activity on cell proliferation inhibition was examined. In the same manner as in Experimental Example 9, siRNA against ATR was introduced into BALL-1 cells, and the cells were incubated for 48 hours. Subsequently, a cell medium was replaced with a medium containing 3EZ,20Ac-ingenol at a final concentration of 0.5 μM, and culturing was performed for 48 hours.
For comparison, BALL-1 cells cultured for 48 hours in a medium containing 3EZ,20Ac-ingenol at a final concentration of 0.5 μM without introduction of siRNA were used. In addition, as controls, cells into which control siRNA (“ON-TARGET Plus Nontargeting pool,” GE Dharmacon) was introduced and which were then cultured in the absence of 3EZ,20Ac-ingenol were used.

topoisomerase = conditions: cited from earlier work
[3] = system: phosphorylated Akt (Ser^473); assay: Western blotting, p-Akt (Ser473), TKG0210 cells; format: cell-based, human; conditions: 0.5 μM
Experimental: as §1, §2

BALL-1 cells [4] = assay: MTT assay, BALL-1 cells; format: cell-based, human; conditions: 0.01, 0.05, 0.1, 0.5, and 1 μM, 48 hours
Experimental: BALL-1 cells of a cell line derived from […], TKG0210 cells of a human myeloid leukemia cell line, and TKG0377 cells of a human T cell acute leukemia cell line were seeded in 96-well plates at 2.5×10^4 cells/well/100 μL, and cultured for 48 hours in the presence of 3EZ,20Ac-ingenol at final concentrations of 0 (control), 0.5, 1, 5, and 10 μM. Subsequently, cell proliferation was examined by MTT assay using a Cell Proliferation Kit 1 (Roche Applied Science).
BALL-1 cells were exposed to 3EZ,20Ac-ingenol, 3EE,20Ac-ingenol, 20Ac-ingenol, and ingenol at concentrations of 0.01, 0.05, 0.1, 0.5, and 1 μM for 48 hours. Thereafter, cell proliferation was examined by MTT assay. Cells that were not exposed to the chemical were used as controls. The chemical formulas of 3EZ,20Ac-ingenol, 3EE,20Ac-ingenol, and 20Ac-ingenol are as described above. The chemical formula of ingenol is shown in the following Formula (7).

[5] = system: phosphorylated Akt (Ser^473); assay: Western blotting, p-Akt (Ser473), BALL-1 cells; format: cell-based, human; conditions: 0.5 μM
Experimental: as §1
The effect of 3EZ,20Ac-ingenol treatment on PTEN, p-PTEN, and p-Akt of BALL-1 cells was examined. First, BALL-1 cells were cultured for 3, 6, 12, 24, and 48 hours in the presence of 3EZ,20Ac-ingenol at a final concentration of 0.5 μM, and by Western blotting using an anti-PTEN antibody (Santa Cruz), an anti-p-PTEN (Ser^380/Thr^382/383) antibody (Santa Cruz), and an anti-p-Akt (Ser^473) antibody (Cell Signaling Technology), abundances of PTEN, p-PTEN, and p-Akt in the entire cell fraction were analyzed. In addition, cells cultured in the absence of 3EZ,20Ac-ingenol were used as controls.
as §2
The effect of 3EZ,20Ac-ingenol treatment on PTEN and p-Akt was examined using siRNA against PTEN. First, BALL-1 cells were cultured for 12, 24, and 48 hours in the presence of 3EZ,20Ac-ingenol at a final concentration of 0.5 μM, and an abundance of p-Akt was analyzed by Western blotting in the same manner as in Experimental Example 11. Cells cultured in the absence of 3EZ,20Ac-ingenol were used as controls.
Subsequently, siRNA against PTEN (“ON-TARGET Plus Human PTEN (5728) siRNA-SMARTpool,” GE Dharmacon) was introduced into BALL-1 cells at a final concentration of 50 nM and incubated for 48 hours. Subsequently, a cell medium was replaced with a new medium and cultured for 12, 24, and 48 hours in the presence or absence of 3EZ,20Ac-ingenol at a final concentration of 0.5 μM, and by Western blotting using an anti-PTEN antibody (Santa Cruz) and an anti-p-Akt (Ser^473) antibody (Cell Signaling Technology), abundances of PTEN protein and p-Akt were analyzed.

[6] = 24 and 48 hours, cytoplasm fraction and nuclear fraction

## CCCCC/C=C\C=C\C(=O)O[C@H]1C(C)=C[C@]23C(=O)[C@@H](C=C(COC(C)=O)[C@@H](O)[C@]12O)[C@H]1[C@@H](C[C@H]3C)C1(C)C [3EZ,20Ac-ingenol, 3-O-(2′E,4′Z-decadienoyl)-20-O-acetylingenol]
[1]; [6]
  abundance of p-Akt: no decrease in abundance of p-Akt was observed
[1]; 48 hours, cytoplasm fraction
  abundance of p-Akt: remained almost unchanged
[1]; 48 hours, nuclear fraction
  abundance of p-Akt: increased
BALL-1 cells [2]
  reduction of cell proliferation inhibition by knockdown of ATR: about 20%
topoisomerase
  DNA cleavage: does not cause DNA cleavage
[3]; [6]
  abundance of p-Akt: no decrease in abundance of p-Akt was observed
[3]; 48 hours, cytoplasm fraction
  abundance of p-Akt: remained almost unchanged
[3]; 48 hours, entire cell
  abundance of p-Akt: a decrease in abundance of phosphorylated Akt
[3]; 48 hours, nuclear fraction
  abundance of p-Akt: remained almost unchanged
BALL-1 cells [4]
  inhibition of proliferation of the BALL-1 cells: a significant level of inhibition of proliferation
[5]; 3 to 48 hours, entire cell fraction
  abundance of p-Akt: down-regulation of p-Akt abundance was observed
[5]; 24 hours after the start of treatment (Experimental Example 16)
  abundance of p-Akt: an abundance of p-Akt in the BALL-1 cells decreased
[5]; 24 hours, nuclear fraction
  abundance of p-Akt: a moderate decrease in abundance of p-Akt was observed
[5]; 48 hours, cytoplasm fraction
  abundance of p-Akt: slightly reduced; also recorded: a slight decrease in abundance of p-Akt was observed
[5]; 48 hours, entire cell
  abundance of p-Akt: a decrease in abundance of phosphorylated Akt
[5]; 48 hours, nuclear fraction
  abundance of p-Akt: significantly decreased; also recorded: a further decrease in abundance of p-Akt
[5]; cells with siRNA against PTEN introduced, after 12 hours
  abundance of p-Akt: an increase in abundance of p-Akt was observed
[5]; cells with siRNA against PTEN introduced, after 24 hours and 48 hours
  abundance of p-Akt: a decrease in abundance of p-Akt was observed
